Test results reported in patent publication US10662146B2, “Prodrugs of fencamfamine” (Praxis Bioresearch, LLC, priority 2015, dated 2020).
Read-outs that look alike come from different tables or passages of the source.

Assay: Single dose intravenous PK study in male Sprague Dawley rats (plasma by LC-MS/MS)
Assay type: in vivo
Settings: for Plasma concentration of PRX-002 (−) Isomer: PRX-002 (−) Isomer IV 2 mg/kg b.w.; for AUC(0-inf) / AUC(0-t) / clearance / Cmax / MRT last / half-life / Vd: iv, 2 mg/kg
Protocol: We describe here PK results of prodrugs of PRX-002 (−) or (+) isomers. All doses of prodrugs were administered such that they were equivalent to 5 mg/kg of PRX-002 (−) or (+) for oral studies and 2 mg/kg PRX-002 (−) or (+) for intravenous studies in male Sprague-Dawley (MSD) rats. Higher doses of up to 10 or 15 mg/kg [again equivalent to PRX-002 (−)] were used in some studies (as specified)]. Formulation preparation, dose administration and time of sample collection was as follows.
(§1) Adult male Sprague Dawley Rats aged 8-10 weeks were used for the study. Animals were administered the test item by Intravenous bolus route with a dose of 2 mg/kg body weight at dose volume of 5.0 mL/kg body weight. Under mild isoflurane anesthesia, blood specimens were collected by retro-orbital puncture method using capillary tubes into pre-labeled tubes containing anticoagulant (K2EDTA-2 mg/mL blood) during the next 24 hours of post dose as mentioned in below table. For blood sampling at multiple time points, right and left eyes were used alternatively for blood collection. Collected blood specimens were centrifuged at 4000 rpm, 4° C. for 10 minutes and plasma were separated and stored at −80° C. until analysis.
Blood was collected as outlined in Table 39.2 (IV).
Test item PRX-P4-003 was weighed and transferred to a graduated tube. Then 600 μL of PEG 400 (v/v) was added and vortex mixed thoroughly until the test item was completely dissolved. Then 1.800 mL of Hydroxypropyl-β-cyclodextrin (HPβCD, 50% w/v) was added and vortex mixed thoroughly. The final volume was then made up to 3.600 mL with sterile water for injection (SWFI, v/v) with final formulation strength of 5.16 mgA/mL. […] This formulation was freshly prepared before the administration to animals.
as §1, with “administered with a PRX-P4-003” for “administered the test item”, “of 10” for “of 2”, “of 5” for “of 5.0”
Test item PRX-P5-006 was weighed and transferred to a graduated tube. Then 500 μL of DMSO (v/v) was added vortex mixed thoroughly until the test item was completely dissolved. Then 4000 μL of Hydroxypropyl-β-cyclodextrin (HPβCD, 50% w/v) was added and vortex mixed thoroughly. Then 2500 μL of PEG 400 (v/v) was added and vortex mixed thoroughly. The final volume was then made up to 10000 μL with sterile water for injection (SWFI, v/v) with final formulation strength of 3.97 mg/mL. […] This formulation was freshly prepared before the administration to animals.
as §1, with “administered with a PRX-P5-006” for “administered the test item”, “of 15” for “of 2”, “of 10” for “of 5.0”
The plasma concentrations of fencamfamine were measured by LC-MS/MS over time. […] The release of fencamfamine from the prodrugs varied depending on the chain length of the fatty acid linkers attached to fencamfamine. […]

CCN[C@@H]1[C@@H]2CC[C@@H](C2)[C@H]1c1ccccc1 [PRX-002 (−) Isomer, (1R,2R,3S,4S)—N-Ethyl-3-phenylbicyclo[2.2.1]heptan-2-amine, reference compound]
Plasma concentration of PRX-002 (−) Isomer (0.08 h, mean): 142.01 | Plasma concentration of PRX-002 (−) Isomer (0.25 h, mean): 112.59 | Plasma concentration of PRX-002 (−) Isomer (0.50 h, mean): 81.21 | Plasma concentration of PRX-002 (−) Isomer (1.00 h, mean): 58.82 | Plasma concentration of PRX-002 (−) Isomer (2.00 h, mean): 53.05 | Plasma concentration of PRX-002 (−) Isomer (4.00 h, mean): 16.55 | Plasma concentration of PRX-002 (−) Isomer (6.00 h, mean): 0.00 | Plasma concentration of PRX-002 (−) Isomer (24.00 h, mean): 0.00 | AUC% extrap of PRX-002 (−) Isomer (PRX-002 (−) Isomer IV 2 mg/kg, mean): 14.056 ± 5.0710% | AUC(0-inf) (male, Sprague Dawley, rat, plasma, PRX-002 (−) Isomer IV 2 mg/kg, mean, read-out: AUCinf of PRX-002 (−) Isomer): 256 ± 44.3 ng·h/mL | AUC(0-t) (male, Sprague Dawley, rat, plasma, PRX-002 (−) Isomer IV 2 mg/kg, mean, read-out: AUClast of PRX-002 (−) Isomer): 219 ± 23.9 ng·h/mL | clearance (male, Sprague Dawley, rat, plasma, PRX-002 (−) Isomer IV 2 mg/kg, mean, read-out: CL of PRX-002 (−) Isomer): 133 ± 21 mL/min/kg | Cmax (male, Sprague Dawley, rat, plasma, PRX-002 (−) Isomer IV 2 mg/kg, mean, read-out: Cmax of PRX-002 (−) Isomer): 143 ± 1.75 ng/mL | MRT last (male, Sprague Dawley, rat, plasma, PRX-002 (−) Isomer IV 2 mg/kg, mean, read-out: MRTlast of PRX-002 (−) Isomer): 1.33 ± 0.118 h | half-life (male, Sprague Dawley, rat, plasma, PRX-002 (−) Isomer IV 2 mg/kg, mean, read-out: T1/2 of PRX-002 (−) Isomer (converted)): 1.51 ± 0.223 h | Vd (male, Sprague Dawley, rat, plasma, PRX-002 (−) Isomer IV 2 mg/kg, mean, read-out: Vss of PRX-002 (−) Isomer): 15.7 ± 0.339 L/kg | Tmax (male, Sprague Dawley, rat, plasma, PRX-002 (−) Isomer IV 2 mg/kg, mean, read-out: Tmax of PRX-002 (−) Isomer): 8.22 ± 5.88 min

CCCCCCCCCCCCCCCCCC(=O)OCOC(=O)N(CC)C1C2CCC(C2)C1c1ccccc1 (single isomer, unassigned) [PRX-P4-003, N-(Octadecanoyloxymethoxycarbonyl)-(−)-N-ethyl-3-phenylbicyclo[2.2.1]heptan-2-amine]
Plasma concentration of PRX-P4-003 (PRX-P4-003 IV 2 mg/kg b.w., 0.08 h, mean): 171.96 | Plasma concentration of PRX-P4-003 (PRX-P4-003 IV 2 mg/kg b.w., 0.25 h, mean): 47.94 | Plasma concentration of PRX-P4-003 (PRX-P4-003 IV 2 mg/kg b.w., 0.50 h, mean): 26.73 | Plasma concentration of PRX-P4-003 (PRX-P4-003 IV 2 mg/kg b.w., 1.00 h, mean): 20.03 | Plasma concentration of PRX-P4-003 (PRX-P4-003 IV 2 mg/kg b.w., 2.00 h, mean): 18.29 | Plasma concentration of PRX-P4-003 (PRX-P4-003 IV 2 mg/kg b.w., 4.00 h, mean): 14.23 | Plasma concentration of PRX-P4-003 (PRX-P4-003 IV 2 mg/kg b.w., 6.00 h, mean): 10.72 | Plasma concentration of PRX-P4-003 (PRX-P4-003 IV 2 mg/kg b.w., 24.00 h, mean): 0.00 | AUC% extrap of PRX-P4-003 (PRX-P4-003 IV 2 mg/kg, mean): 32.475 ± 83.3890% | Plasma concentration of PRX-P4-003 (PRX-P4-003 IV 10 mg/kg b.w., 0.08 h, mean): 199.64 | Plasma concentration of PRX-P4-003 (PRX-P4-003 IV 10 mg/kg b.w., 0.25 h, mean): 27.98 | Plasma concentration of PRX-P4-003 (PRX-P4-003 IV 10 mg/kg b.w., 0.50 h, mean): 8.96 | Plasma concentration of PRX-P4-003 (PRX-P4-003 IV 10 mg/kg b.w., 1.00 h, mean): 0.00 | Plasma concentration of PRX-P4-003 (PRX-P4-003 IV 10 mg/kg b.w., 2.00 h, mean): 0.00 | Plasma concentration of PRX-P4-003 (PRX-P4-003 IV 10 mg/kg b.w., 4.00 h, mean): 0.00 | Plasma concentration of PRX-P4-003 (PRX-P4-003 IV 10 mg/kg b.w., 6.00 h, mean): 0.00 | Plasma concentration of PRX-P4-003 (PRX-P4-003 IV 10 mg/kg b.w., 24.00 h, mean): 0.00 | Conversion of pro-drug form to active form PRX-002(−) isomer in plasma (PRX-P4-003 IV administration (FIG. 2)): minimal amounts | Amount of parent PRX-002 (−) generated (PRX-P4-003 IV, even at higher dose of 10 mg/kg (FIG. 3)): very limited amount | Cmax (male, Sprague Dawley, rat, plasma, IV 2 mg/kg [equivalent to PRX-002 (−)], analyte: prodrug in plasma, mean, read-out: IV PK Parameters Cmax, Prodrug): 172 ± 62.6 ng/mL | AUC (male, Sprague Dawley, rat, IV 2 mg/kg [equivalent to PRX-002 (−)], analyte: prodrug in plasma, mean, read-out: IV PK Parameters AUC, Prodrug): 133 ± 32.5 ng·h/mL | Tmax (male, Sprague Dawley, rat, IV 2 mg/kg [equivalent to PRX-002 (−)], analyte: prodrug in plasma, mean, read-out: IV PK Parameters Tmax, Prodrug): 4.8 min | AUC(0-inf) (male, Sprague-Dawley, rat, plasma, PRX-P4-003 IV 2 mg/kg, mean, read-out: AUCinf of PRX-P4-003): 216 ± 83.4 ng·h/mL | AUC(0-t) (male, Sprague-Dawley, rat, plasma, PRX-P4-003 IV 2 mg/kg, mean, read-out: AUClast of PRX-P4-003): 133 ± 32.5 ng·h/mL | clearance (male, Sprague-Dawley, rat, plasma, PRX-P4-003 IV 2 mg/kg, mean, read-out: CL of PRX-P4-003): 172 ± 69.3 mL/min/kg | Cmax (male, Sprague-Dawley, rat, plasma, PRX-P4-003 IV 2 mg/kg, mean, read-out: Cmax of PRX-P4-003): 172 ± 62.6 ng/mL | MRT last (male, Sprague-Dawley, rat, plasma, PRX-P4-003 IV 2 mg/kg, mean, read-out: MRTlast of PRX-P4-003): 1.84 ± 0.713 h | half-life (male, Sprague-Dawley, rat, plasma, PRX-P4-003 IV 2 mg/kg, mean, read-out: T1/2 of PRX-P4-003 (converted)): 3.35 ± 2.18 h | Vd (male, Sprague-Dawley, rat, plasma, PRX-P4-003 IV 2 mg/kg, mean, read-out: Vss of PRX-P4-003): 42 ± 19.9 L/kg | Tmax (male, Sprague-Dawley, rat, plasma, PRX-P4-003 IV 2 mg/kg, mean, read-out: Tmax of PRX-P4-003): 4.8 min
